# Reference: US9247741B2, “Use of macrocyclic picolinamides as fungicides” (DOW AGROSCIENCES LLC, priority 2013, dated 2016)
# Read-outs that look alike come from different tables or passages of the source.
# What was measured:
# Format in all cases: in vivo
# [1] = system: Mycosphaerella graminicola; Anamorph: Septoria tritici; test: Leaf blotch of wheat (SEPTTR) disease control on wheat seedlings; settings: Zymoseptoria tritici, wheat; for pest or weed control at 121.5 g/ha: 121.5 g/H (low volume track spray); for pest or weed control at 100 ppm: 100 ppm (high volume)
# Protocol: Evaluation of Fungicidal Activity: Leaf Blotch of Wheat (Mycosphaerella graminicola; Anamorph: Septoria tritici; Bayer Code […]) Technical grades of materials were dissolved in acetone, which were then mixed with nine volumes of water containing 110 ppm Triton X-100. The fungicide solutions were applied onto wheat seedlings using an automated booth sprayer to run-off. All sprayed plants were allowed to air dry prior to further handling. All fungicides were evaluated using the aforementioned method for their activity vs. all target diseases. Wheat leaf blotch and brown rust activity were also evaluated using track spray applications, in which case the fungicides were formulated as EC formulations, containing 0.1% Trycol 5941 in the spray solutions. Wheat plants (variety Yuma) were grown from seed in a greenhouse in 50% mineral soil/50% soil-less Metro mix until the first leaf was fully emerged, with 7-10 seedlings per pot. These plants were inoculated with an aqueous spore suspension of Septoria tritici either prior to or after fungicide treatments. After inoculation the plants were kept in 100% relative humidity (one day in a dark dew chamber followed by two to three days in a lighted dew chamber at 20° C.) to permit spores to germinate and infect the leaf. The plants were then transferred to a greenhouse set at 20° C. for disease to develop. When disease symptoms were fully expressed on the l^st leaves of untreated plants, infection levels were assessed on a scale of 0 to 100 percent disease severity. Percent disease control was calculated using the ratio of disease severity on treated plants relative to untreated plants.
# [2] = system: Glomerella lagenarium; Anamorph: Colletotrichum lagenarium; test: Cucumber anthracnose (COLLLA) disease control; settings: Colletotrichum orbiculare, 24 h, 1 Day Protectant, read-out: COLLLA disease control rating
# Protocol: Technical grades of materials were dissolved in acetone, which were then mixed with nine volumes of water containing 110 ppm Triton X-100. The fungicide solutions were applied onto wheat seedlings using an automated booth sprayer to run-off. All sprayed plants were allowed to air dry prior to further handling. All fungicides were evaluated using the aforementioned method for their activity vs. all target diseases. Wheat leaf blotch and brown rust activity were also evaluated using track spray applications, in which case the fungicides were formulated as EC formulations, containing 0.1% Trycol 5941 in the spray solutions. Wheat plants (variety Yuma) were grown from seed in a greenhouse in 50% mineral soil/50% soil-less Metro mix until the first leaf was fully emerged, with 7-10 seedlings per pot. These plants were inoculated with an aqueous spore suspension of Septoria tritici either prior to or after fungicide treatments. After inoculation the plants were kept in 100% relative humidity (one day in a dark dew chamber followed by two to three days in a lighted dew chamber at 20° C.) to permit spores to germinate and infect the leaf. The plants were then transferred to a greenhouse set at 20° C. for disease to develop. When disease symptoms were fully expressed on the l^st leaves of untreated plants, infection levels were assessed on a scale of 0 to 100 percent disease severity. Percent disease control was calculated using the ratio of disease severity on treated plants relative to untreated plants. Evaluation of Fungicidal Activity: Cucumber Anthracnose (Glomerella lagenarium; Anamorph: Colletotrichum lagenarium; Bayer Code COLLLA) Cucumber seedlings (variety Bush Pickle) were propagated in soil-less Metro mix, with each pot having one plant, and used in the test when 12 to 14 days old. Test plants were inoculated with an aqueous spore suspension of Colletotrichum lagenarium 24 hr after fungicide treatments. After inoculation the plants were kept in a dew room at 22° C. with 100% relative humidity for 48 hr to permit spores to germinate and infect the leaf. The plants were then transferred to a growth room set at 22° C. for disease to develop. Fungicide formulation, application and disease assessment on the sprayed leaves followed the procedures as described in the Example A.
# [3] = system: Magnaporthe grisea; Anamorph: Pyricularia oryzae; settings: 1 Day Protectant, 100 ppm, rice
# Leptosphaeria nodorum = test: Wheat glume blotch (LEPTNO) disease control; settings: Parastagonospora nodorum, 24 h, 1 Day Protectant, read-out: LEPTNO disease control rating
# Protocol: Technical grades of materials were dissolved in acetone, which were then mixed with nine volumes of water containing 110 ppm Triton X-100. The fungicide solutions were applied onto wheat seedlings using an automated booth sprayer to run-off. All sprayed plants were allowed to air dry prior to further handling. All fungicides were evaluated using the aforementioned method for their activity vs. all target diseases. Wheat leaf blotch and brown rust activity were also evaluated using track spray applications, in which case the fungicides were formulated as EC formulations, containing 0.1% Trycol 5941 in the spray solutions. Wheat plants (variety Yuma) were grown from seed in a greenhouse in 50% mineral soil/50% soil-less Metro mix until the first leaf was fully emerged, with 7-10 seedlings per pot. These plants were inoculated with an aqueous spore suspension of Septoria tritici either prior to or after fungicide treatments. After inoculation the plants were kept in 100% relative humidity (one day in a dark dew chamber followed by two to three days in a lighted dew chamber at 20° C.) to permit spores to germinate and infect the leaf. The plants were then transferred to a greenhouse set at 20° C. for disease to develop. When disease symptoms were fully expressed on the l^st leaves of untreated plants, infection levels were assessed on a scale of 0 to 100 percent disease severity. Percent disease control was calculated using the ratio of disease severity on treated plants relative to untreated plants. Evaluation of Fungicidal Activity: Wheat Glume Blotch (Leptosphaeria nodorum; Bayer Code […]) Wheat plants (variety Yuma) were grown from seed in a greenhouse in 50% mineral soil/50% soil-less Metro mix until the first leaf was fully emerged, with 7-10 seedlings per pot. These plants were inoculated with an aqueous spore suspension of Leptosphaeria nodorum 24 hr after fungicide treatments. After inoculation the plants were kept in 100% relative humidity (one day in a dark dew chamber followed by two days in a lighted dew chamber at 20° C.) to permit spores to germinate and infect the leaf. The plants were then transferred to a greenhouse set at 20° C. for disease to develop. Fungicide formulation, application and disease assessment followed the procedures as described in the Example A.
# [4] = 24 h, 1 Day Protectant, read-out: SEPTTR 1DP disease control rating
# [5] = 72 h, 3 Day Curative, read-out: SEPTTR 3DC disease control rating
structure (smiles),measurement,setting,value
CCCC[C@H]1[C@H](C)OC(=O)[C@@H](NC(=O)c2nccc(OC)c2OCOC(C)=O)CCC[C@@H]1OCC1CC1 [Compound 73],pest or weed control at 121.5 g/ha,[1]; [4],> 70%
same,pest or weed control at 121.5 g/ha,[1]; [5],> 70%
same,pest or weed control at 100 ppm,[2],> 70%
same,PYRIOR disease control rating,[3],A (>70)
same,pest or weed control at 100 ppm,Leptosphaeria nodorum,> 70%
"CCCO[C@H]1CCC[C@H](NC(=O)c2nccc(OC)c2OC(C)=O)C(=O)O[C@@H](C)[C@@H]1CCC(C)C [Compound 74, 2-(((3S,7S,8S,9S)-8-isopentyl-9-methyl-2-oxo-7-propoxyoxonan-3-yl)carbamoyl)-4-methoxypyridin-3-yl acetate]",pest or weed control at 121.5 g/ha,[1]; [4],> 70%
same,pest or weed control at 121.5 g/ha,[1]; [5],> 70%
same,pest or weed control at 100 ppm,[2],> 70%
same,PYRIOR disease control rating,[3],A (>70)
same,pest or weed control at 100 ppm,Leptosphaeria nodorum,> 70%
COc1ccnc(C(=O)N[C@H]2CCC[C@H](Oc3ccccc3)[C@@H](CCC(C)C)[C@H](C)OC2=O)c1OCOC(C)=O [Compound 40],pest or weed control at 121.5 g/ha,[1]; [4],> 70%
same,pest or weed control at 121.5 g/ha,[1]; [5],> 70%
same,pest or weed control at 100 ppm,[2],> 70%
same,PYRIOR disease control rating,[3],A (>70)
same,pest or weed control at 100 ppm,Leptosphaeria nodorum,> 70%
"CCCO[C@H]1CCC[C@H](NC(=O)c2nccc(OC)c2OCOC(C)=O)C(=O)O[C@@H](C)[C@@H]1CCC(C)C [Compound 25, ((2-(((3S,7S,8S,9S)-8-isopentyl-9-methyl-2-oxo-7-propoxyoxonan-3-yl)carbamoyl)-4-methoxypyridin-3-yl)oxy)methyl acetate]",pest or weed control at 121.5 g/ha,[1]; [4],< 70%
same,pest or weed control at 121.5 g/ha,[1]; [5],> 70%
same,pest or weed control at 100 ppm,[2],> 70%
same,pest or weed control at 100 ppm,Leptosphaeria nodorum,> 70%
CCCO[C@H]1CCC[C@H](NC(=O)c2nccc(OC)c2OC(C)=O)C(=O)O[C@@H](C)[C@@H]1Cc1ccccc1 [Compound 70],pest or weed control at 100 ppm,[1]; [4],> 70%
same,pest or weed control at 121.5 g/ha,[1]; [4],> 70%
same,pest or weed control at 100 ppm,[1]; [5],> 70%
same,pest or weed control at 121.5 g/ha,[1]; [5],> 70%
same,pest or weed control at 100 ppm,[2],> 70%
same,PYRIOR disease control rating,[3],A (>70)
same,pest or weed control at 100 ppm,Leptosphaeria nodorum,> 70%
COc1ccnc(C(=O)N[C@H]2CCC[C@H](OCC3CC3)[C@@H](Cc3ccc(F)cc3)[C@H](C)OC2=O)c1OCOC(C)=O [Compound 61],pest or weed control at 121.5 g/ha,[1]; [4],> 70%
same,pest or weed control at 121.5 g/ha,[1]; [5],> 70%
same,pest or weed control at 100 ppm,[2],> 70%
same,PYRIOR disease control rating,[3],A (>70)
same,pest or weed control at 100 ppm,Leptosphaeria nodorum,> 70%
CCCC[C@H]1[C@H](C)OC(=O)[C@@H](NC(=O)c2nccc(OC)c2OCOC(C)=O)CCC[C@@H]1Oc1ccccc1 [Compound 33],pest or weed control at 121.5 g/ha,[1]; [4],> 70%
same,pest or weed control at 121.5 g/ha,[1]; [5],> 70%
same,pest or weed control at 100 ppm,[2],> 70%
same,PYRIOR disease control rating,[3],A (>70)
same,pest or weed control at 100 ppm,Leptosphaeria nodorum,> 70%
COc1ccnc(C(=O)N[C@H]2CCC[C@H](Oc3ccccc3)[C@@H](CCC(C)C)[C@H](C)OC2=O)c1OC(C)=O [Compound 36],pest or weed control at 121.5 g/ha,[1]; [4],> 70%
same,pest or weed control at 121.5 g/ha,[1]; [5],> 70%
same,pest or weed control at 100 ppm,[2],> 70%
same,pest or weed control at 100 ppm,Leptosphaeria nodorum,> 70%
